According to article PMC6492180, “Cytome micronucleus assays with a metabolically competent human derived liver cell line (Huh6): A promising approach for routine testing of chemicals?” (Environmental and Molecular Mutagenesis, 2018):
Read-outs that look alike come from different tables or passages of the source. Marks after values point to notes of the source that are not given here.

Legend:
[1] = ref IARC (2018); cited from earlier work
Human lymphocytes = settings: Human lymphocytes, + S9; ref Katic et al., 2010; cited from earlier work
HepG2 = settings: HepG2; ref Majer et al., 2004; cited from earlier work
Hep3B = settings: Hep3B; ref Majer et al., 2004; cited from earlier work
HepaRG = settings: HepaRG; ref Le Hegarat et al., 2010; cited from earlier work
Huh6 cells = system: Huh6 cells
In short: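 Huh6 cells seeded in RPMI with 4% (or 10%) FBS for 12 hr, then exposed to mutagens for 4, 24 or 48 hr alongside solvent controls; cytocentrifuged, DiffQuick-stained. ≥1,000 binucleated cells scored per culture (≥2,000 per dose) for MN, NBuds, NBs; CBPI recorded. Poisson generalized linear model, p≤0.05.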

[2] = 10% FBS, 24 hr treatment, 50 µM
[3] = 10% FBS, 24 hr treatment, 100 µM

Cn1c(N)nc2ncc(-c3ccccc3)cc21 [PhiP, 2‐Amino‐1‐methyl‐6‐phenylimidazo[4,5‐b]pyridine]
IARC classification [1]: Formation of guanine adducts; activation: CYP1A2 and SULT; detoxification: GSTs; IARC: Group 2B | Lowest effective concentration (LOEC) in micronucleus experiments (Human lymphocytes): 2.5 + S9 (Katic et al., 2010) μM | Lowest effective concentration (LOEC) in micronucleus experiments (HepG2): 25.0 (Majer et al., 2004) μM | Lowest effective concentration (LOEC) in micronucleus experiments (Hep3B): Negative | NOEC (highest no observable effect concentration tested) (Hep3B): 300.0 µM | Lowest effective concentration (LOEC) in micronucleus experiments (HepaRG): Negative | NOEC (highest no observable effect concentration tested) (HepaRG): 320.0 µM | MN effects after 24 hr (or longer) compared with 4 hr treatment (in words) (Huh6 cells; 4% FBS): more pronounced effects | BN-MN (number of micronucleated cells) (Huh6 cells; 4% FBS, 4hrs, 25 µM): 23.5 ± 0.7 ‰ | Bridges (Huh6 cells; 4% FBS, 4hrs, 25 µM): 0.5 ± 0.7 ‰ | Buds (Huh6 cells; 4% FBS, 4hrs, 25 µM): 18.0 ± 5.7 ‰ | CBPI (Huh6 cells; 4% FBS, 4hrs, 25 µM): 1.7 ± 0.1 | MN (total number of micronuclei) (Huh6 cells; 4% FBS, 4hrs, 25 µM): 23.5 ± 0.7 ‰ | BN-MN (number of micronucleated cells) (Huh6 cells; 4% FBS, 4hrs, 50 µM): 22.5 ± 2.1 ‰ | Bridges (Huh6 cells; 4% FBS, 4hrs, 50 µM): 2.0 ± 1.4 ‰ | Buds (Huh6 cells; 4% FBS, 4hrs, 50 µM): 19.0 ± 7.1 ‰ | CBPI (Huh6 cells; 4% FBS, 4hrs, 50 µM): 1.6 ± 0.2 | MN (total number of micronuclei) (Huh6 cells; 4% FBS, 4hrs, 50 µM): 22.5 ± 2.1 ‰ | BN-MN (number of micronucleated cells) (Huh6 cells; 4% FBS, 4hrs, 100 µM): 26 ± 1.4 ‰ | Bridges (Huh6 cells; 4% FBS, 4hrs, 100 µM): 1.5 ± 0.7 ‰ | Buds (Huh6 cells; 4% FBS, 4hrs, 100 µM): 23.5 ± 6.4 ‰ | CBPI (Huh6 cells; 4% FBS, 4hrs, 100 µM): 1.7 ± 0.0 | MN (total number of micronuclei) (Huh6 cells; 4% FBS, 4hrs, 100 µM): 28 ± 1.4 ‰ | BN-MN (number of micronucleated cells) (Huh6 cells; 4% FBS, 24hrs, 25 µM): 17.5 ± 2.1 ‰ | Bridges (Huh6 cells; 4% FBS, 24hrs, 25 µM): 0.0 ± 0.0 ‰ | Buds (Huh6 cells; 4% FBS, 24hrs, 25 µM): 10.5 ± 0.7 ‰ | CBPI (Huh6 cells; 4% FBS, 24hrs, 25 µM): 1.9 ± 0.1 | MN (total number of micronuclei) (Huh6 cells; 4% FBS, 24hrs, 25 µM): 17.5 ± 2.1 ‰ | BN-MN (number of micronucleated cells) (Huh6 cells; 4% FBS, 24hrs, 50 µM): 26.5 ± 0.7* ‰ | Bridges (Huh6 cells; 4% FBS, 24hrs, 50 µM): 1.5 ± 0.7 ‰ | Buds (Huh6 cells; 4% FBS, 24hrs, 50 µM): 24.5 ± 0.7* ‰ | CBPI (Huh6 cells; 4% FBS, 24hrs, 50 µM): 1.8 ± 0.0 | MN (total number of micronuclei) (Huh6 cells; 4% FBS, 24hrs, 50 µM): 30.0 ± 1.4* ‰ | BN-MN (number of micronucleated cells) (Huh6 cells; 4% FBS, 24hrs, 100 µM): 49.5 ± 2.1* ‰ | Bridges (Huh6 cells; 4% FBS, 24hrs, 100 µM): 3.0 ± 0.0 ‰ | Buds (Huh6 cells; 4% FBS, 24hrs, 100 µM): 34.0 ± 1.4* ‰ | CBPI (Huh6 cells; 4% FBS, 24hrs, 100 µM): 1.9 ± 0.0 | MN (total number of micronuclei) (Huh6 cells; 4% FBS, 24hrs, 100 µM): 49.5 ± 2.1* ‰ | BN-MN (number of micronucleated cells) (Huh6 cells; 4% FBS, 48hrs, 25 µM): 20.0 ± 1.4 ‰ | Bridges (Huh6 cells; 4% FBS, 48hrs, 25 µM): 0.0 ± 0.0 ‰ | Buds (Huh6 cells; 4% FBS, 48hrs, 25 µM): 20.5 ± 3.5 ‰ | CBPI (Huh6 cells; 4% FBS, 48hrs, 25 µM): 1.9 ± 0.1 | MN (total number of micronuclei) (Huh6 cells; 4% FBS, 48hrs, 25 µM): 20.5 ± 0.7 ‰ | BN-MN (number of micronucleated cells) (Huh6 cells; 4% FBS, 48hrs, 50 µM): 20.5 ± 3.5 ‰ | Bridges (Huh6 cells; 4% FBS, 48hrs, 50 µM): 0.5 ± 0.7 ‰ | Buds (Huh6 cells; 4% FBS, 48hrs, 50 µM): 22.0 ± 4.2 ‰ | CBPI (Huh6 cells; 4% FBS, 48hrs, 50 µM): 1.9 ± 0.0 | MN (total number of micronuclei) (Huh6 cells; 4% FBS, 48hrs, 50 µM): 21.5 ± 3.5 ‰ | BN-MN (number of micronucleated cells) (Huh6 cells; 4% FBS, 48hrs, 100 µM): 22.0 ± 1.4 ‰ | Bridges (Huh6 cells; 4% FBS, 48hrs, 100 µM): 0.5 ± 0.7 ‰ | Buds (Huh6 cells; 4% FBS, 48hrs, 100 µM): 29.5 ± 0.7* ‰ | CBPI (Huh6 cells; 4% FBS, 48hrs, 100 µM): 1.8 ± 0.2 | MN (total number of micronuclei) (Huh6 cells; 4% FBS, 48hrs, 100 µM): 24.0 ± 1.4 ‰ | BN-MN (number of micronucleated cells) (Huh6 cells; [2]): 50.0 ± 2.8* | Bridges (Huh6 cells; [2]): 1.0 ± 1.4 | Buds (Huh6 cells; [2]): 50.0 ± 1.4 | CBPI (Huh6 cells; [2]): 2.0 ± 0.1 | MN (total number of micronuclei) (Huh6 cells; [2]): 56.5 ± 2.1* | BN-MN (number of micronucleated cells) (Huh6 cells; [3]): 55.0 ± 11.3* | Bridges (Huh6 cells; [3]): 1.5 ± 0.7 | Buds (Huh6 cells; [3]): 60.0 ± 7.1* | CBPI (Huh6 cells; [3]): 1.8 ± 0.0 | MN (total number of micronuclei) (Huh6 cells; [3]): 61 ± 12.7* | MN frequencies with 10% serum compared with 4% serum (in words) (Huh6 cells; 24 hr treatment): stronger effects | Lowest effective concentration (LOEC) in micronucleus experiments (Huh6 cells; Huh6): 50.0 µM
